Experimental data reported in patent publication US20250032581A1, “COMPOSITIONS AND ARTICLES COMPRISING AN ADNF POLYPEPTIDE” (RAMOT AT TEL-AVIV UNIVERSITY LTD., priority 2021, published 2025).

How the values were obtained:
[1] = tested on: Tyr mice; assay: Developmental milestone assessment, weight and length of Tyr mouse pups; assay type: in vivo
Method: Animals—Animals were housed under a 12-hour light/dark cycle, with food and water ad-libitum. Mouse pups were subcutaneously administrated with NAP [having an amino acid sequence NAPVSIPQ (SEQ ID NO: 2), 25 μg NAP/1 ml saline] as described (8, 12). At 21 days of age mice were administered daily intranasal NAP in vehicle solution (“DD”—7.5 mg/ml of NaCl, 1.7 mg/ml of citric acid, 3 mg/ml of disodium phosphate dihydrate, and 0.2 mg/ml of 50% benzalkonium chloride solution) (0.5 μg NAP/5p1 DD) (8, 9, 12, and U.S. Pat. No. 10,912,819 to Gozes). These mice continued to behavioral analysis as described hereinbelow. The noninvasive intranasal route was chosen as these experiments required daily handling and administration. Age (weeks) of mice during behavioral experiments (mean±SEM) was as follows: Catwalk—9.23±0.15, grooming—10±0.15, social approach—10.5±0.12, odor-discrimination—12.12±0.13, hanging-wire—13±0.14, hotplate—13.18±0.13. Group size was determined following previous experiments (12). Pups were randomly allocated to either the NAP or DD group according to sex and genotype. All procedures involving animals were conducted under the supervision and approval of the institutional animal care and use committee of Tel Aviv University and the Israeli Ministry of Health.
Developmental milestone assessment and fostering—This experiment included animals from 16 litters in 2 experimental batches. It was performed as previously described (12) with slight modifications. Experimenters were blinded to sex and genotype during experimental procedures. Sexes were grouped if no statistically significant sex differences were discovered.
Additional behavioral assessments— • Fostering: To enable daily handling necessary for developmental milestone assessment and drug treatment, Tyr pups were fostered by ICR females which are known to be excellent dams. Tyr pups were moved after birth to an ICR female mouse who gave birth up to 48 hours prior. ICR litter was culled according to the number of Tyr pups that were added. One day afterwards the remaining ICR pups were euthanized so only Tyr pups were left in the litter. • Pup litter distribution analysis: The genotyping results at p1 after placement with the foster mother was used for this measurement. […] The same day pups were randomized to either NAP or Saline treatment groups according to genotype and sex results and developmental milestone assessment was performed from p1 to p21. As animal randomization ended up with unequal male/female ratios for certain groups and no statistical differences were found between the sexes in any of the 4 treatment groups (T test), the sexes […], [That is except for eye opening, where a significant difference was observed between the sexes in the Tyr group (P=0.047, no significance in the other three treatment groups)]. Pup paws were tattooed using a 31-gauge needle and tattoo ink (Ketchum Manufacturing Co., catalog 329AA) for identification on P1 and, until P21, underwent daily measurements for length and weight and observation for eye opening. Pups were injected daily with NAP, 1 hour prior to the tests as previously described^1.
Briefly, for ear twitch reflex, a cotton tip was gently brushed against the tip of the ear three times, between postnatal days 7-15 or until the pup responded correctly for two consecutive days. For air righting reflex, the pup was held up-side down and released ˜10.5 cm above the cage, containing 5 cm of shavings. The test was performed between postnatal days 8-21 or until the pup landed on the shavings with all four paws, for two consecutive days. For surface righting reflex, pups were placed on their backs on a level surface, the test was performed between postnatal days 1-13 until the pups was able to right itself with all four paws on the surface in under a second for two consecutive days. For eye opening, mice were observed daily until both eyes were open (eyelids separated completely). […]

[2] = tested on: differentiated N1E-115 cells expressing RFP-tagged EB3; assay: Live imaging of EB3 comet-like structures (MT dynamics); assay type: cell-based, mouse
Text: Plasmid construction—Protein expressing plasmids were constructed as previously described based on pEGFP-C1 backbone and express full-length ADNP or the following truncated ADNP proteins: p.Glu830synfs*83, p.Lys408Valfs*31, p.Ser404* (as before). Inserts of cDNA carrying unique mutations were obtained from mRNA extracted from patient-derived lymphoblastoid cell lines and cDNA with full-length human ADNP was obtained from a control lymphoblastoid cell line with no mutation. Protein expressions were verified by fluorescent imaging and immunoblotting analysis as before.
Cell culture—Mouse neuroblastoma NIE-115 cells were maintained in Dulbecco's modified Eagle's medium, 10% fetal bovine serum, 2 mM glutamine and 100 U ml-1 penicillin, 100 mg ml-1 streptomycin (Biological Industries, Beit Haemek, Israel). The cells were incubated in 9 5% air/5% CO2 in a humidified incubator at 37° C.
Cell differentiation and co-transfection of overexpression plasmids—Cultured NIE-115 cells were plated on 35 mm dishes (81156, 60 p-Dish, Ibidi, Martinsried, Germany) at a concentration of 1.25×10^4 cells per dish and then were differentiated with reduced fetal bovine serum (2%) and DMSO (1.25%) containing medium for 5 days before transfection. 48 hrs before experiments N1E-115 cells were co-transfected with 1 μg EB3-RFP or mCherry-Tau (3R) plasmid with or without 2 μg of plasmids, coding to GFP conjugated to full-length human ADNP, or ADNP carried mutations. 1:3 ratios between total amount of transfected DNA and transfection reagent were used according to manufacture guidance (Lipofectamine2000, Thermo Fisher Scientific, Waltham, MA, USA) in all subsequent experiments.
Live Imaging—48 hrs after transfection, differentiated NIE-115 cells (expressing EB3-RFP with or without GFP-conjugated to full-length ADNP or mutated ADNP) were incubated at 37° C. with a 5% CO2/95% air mixture in a thermostatic chamber placed on the stage of a Leica TCS SP5 confocal microscope (objective 100× (PL Apo) oil immersion, NA 1.4). Time-lapse images were automatically captured 3 sec during 1 min, using the Leica LAS AF software. After imaging all samples were also treated with NAP (SEQ ID NO: 2) or SKIP (SEQ ID NO: 21) in final concentrations of 10^−12M, and after 4 hrs time-lapse imaging was done again under the same conditions. Data was collected and analyzed by Imaris software.
To evaluate the effect of ADNP truncated proteins on MT dynamics time-lapse imaging of EB3 comet-like structures formed by RFP-tagged EB3 proteins that bind to MT plus-ends was performed. Two parameters of EB3 activity were used to assess MT dynamics—track length and track speed of EB3 comets, which reflect the length of freshly growing MTs and the speed of MT assembly, respectively. Furthermore, the present inventors aimed to determine whether NAP ([…] for 4 hrs) could prevent the deleterious effect of ADNP mutations.

## CC[C@H](C)[C@H](NC(=O)[C@H](CO)NC(=O)[C@@H](NC(=O)[C@@H]1CCCN1C(=O)[C@H](C)NC(=O)[C@@H](N)CC(N)=O)C(C)C)C(=O)N1CCC[C@H]1C(=O)N[C@@H](CCC(N)=O)C(=O)O [NAP, NAPVSIPQ]
[1]; Tyr mice, data not shown
  rooting reflex: induced rooting in Tyr mice
[1]; Tyr pups, daily s.c. NAP, WT 8.69±0.42, Tyr 10.14±0.36
  surface-righting, first day of acquisition: 8.81 ± 0.33 days
[1]; Tyr pups, daily s.c. NAP, WT 12.96±0.28, Tyr 15.29±0.15
  air-righting, first day of acquisition: 14.63 ± 0.38 days
[1]; WT female mice, data not shown
  body weight: no effect observed on WT female mice
[1]; WT females, data not shown
  eye opening: no NAP effect was observed in WT females
[1]; WT littermates, data not shown
  developmental milestones: no effect on WT littermates except for the cliff aversion response
[1]; female Tyr mice, Tyr 16±0.37, WT 14.93±0.43
  eye opening: 14.78 ± 0.46 days
[1]; males, data not shown
  eye opening: No genotype/NAP effect was observed on males
[2]; 10^−12M, 4 hrs, vs. non-treated control, no significant differences between NAP and SKIP
  EB3 track length and speed: increased EB3 track length and speed
[2]; cells expressing ADNP p.Glu830synfs*83, NAP 4 hrs
  EB3 comet speed and track length: significantly augmented
[2]; cells expressing ADNP p.Ser404*, NAP 4 hrs
  EB3 comet speed and track length: significantly augmented
[2]; cells expressing full-length ADNP, NAP 4 hrs
  EB3 comet track length and speed: did not further influence the effect of full-length ADNP
